Values quoted from earlier work, collected in patent publication US20090297596A1, “Nanoparticulate and Controlled Release Compositions Comprising a Platelet Aggregation Inhibitor” (ELAN PHARMA INTERNATIONAL LIMITED, priority 2005, published 2009).
Like-named read-outs stand apart in the source and are kept apart here.

O=C1CCc2cc(OCCCCc3nnnn3C3CCCCC3)ccc2N1 [Cilostazol, 6-[4-(1-cyclohexyl-1H-tetrazol-5-yl)butoxy]-3,4-dihydro-2(1H)-quinolinone]
Solubility (absolute ether): practically insoluble | Solubility (benzyl alcohol): soluble | Solubility (chloroform): freely soluble | Solubility (dimethylformamide): soluble | Solubility (ethanol): slightly soluble | Solubility (methanol): slightly soluble | Solubility (mixture of chloroform and methanol (1:1)): soluble | Solubility (water): practically insoluble | Inhibition of phosphodiesterase III (phosphodiesterase III): inhibits
